Test [1] deals with follicular stem cells. Nature of the test: Culture of follicular stem cells in 9 kinds of media with or without ROCK inhibitor. The class given is cell-based, human. The settings on record: 10 μM. Here is the method: Then, the follicular stem cells were added to each well of a 12-well plate, and 1 ml of each of control groups and test groups for 9 kinds of media containing ITS+ (insulin, transferrine, selenium) premix, EGF, bFGF and an antibiotic/antimycotic mixture was added to each well of the 12-well plate. 10 μl (10 μM) of the ROCK inhibitor Y-27632 was added to each of the test groups, and the cells were cultured.
At days 2, 3 and 4 after the start of culture, the state of proliferation of the follicular stem cells in each of the media was observed, and the results of the observation are shown in FIGS. 1 to 5.

The subject of test [2] is follicular stem cells. Nature of the test: Proliferation ability of follicular stem cells at various concentrations of ROCK inhibitor. The class given is cell-based, human. The settings on record: M199/F-12 medium, days 2-6. The method, then:
In order to examine the proliferation ability of follicular stem cells at various concentrations of the ROCK inhibitor, the ROCK inhibitor was added at various concentrations to a M199/F-12 medium containing ITS+ premix, EGF, bFGF and antibiotic/antimycotic mixture, and the follicular stem cells obtained in Example 1 were cultured in the medium. Specifically, 10 μM of the ROCK inhibitor was added to M199/F-12 used in Example 1, and the P1 follicular stem cells were cultured in the M199/F-12 medium and collected by TrypLE-Express treatment. Then, the cells were added to each well of a 6-well plate at a density of 7.70×10^5 cells, and 2 ml of M199/F-12 was added to each well of the 6-well plate. The cell suspension was plated in each well of a 6-well plate, and then the ROCK inhibitor Y-27632 was added at concentrations of 10 nM, 100 nM, 1 μM, 10 μM and 100 μM to the 5 wells (excluding the well for a control group) of the 6-well plate, respectively, followed by culture of the follicular stem cells. The medium was replaced at 2-day intervals during culture of the cells, and the cells were photographed 2, 3, 4, 5 and 6 days after the start of cell culture.

This note sets out measurements from patent publication US20120269781A1, “METHOD FOR PROLIFERATING HAIR FOLLICLE STEM CELLS” (RNL BIO CO., LTD., priority 2009, published 2012).

The structures appear in SMILES notation.

As for `CC(N)C1CCC(C(=O)Nc2ccncc2)CC1` (stereo not drawn) [ROCK inhibitor, Y-27632], in the test with follicular stem cells [1] (in M199/F12, MEM-alpha, DMEM L/G, DMEM H/G, MCDB 131 and IMEM medium), the “effect on the proliferation of the follicular stem cells compared to the control groups” value is on record as “good effects”. In the test on follicular stem cells [1] (in M199/F12 medium and MEM-alpha medium), the “effect on the proliferation of the follicular stem cells compared to the control groups” value is reported as “most excellent effects”. Also, the “effect on increase in the number and on the viability of follicular stem cells” value with follicular stem cells [1] (specific media containing the ROCK inhibitor) is “excellent effects”. Moreover, in the test with follicular stem cells [2] (100 nM or less), the “proliferation of the cells versus cells not treated” value is “did not significantly differ”. Besides, in the test with follicular stem cells [2] (1 μM or 100 μM), the “morphology / differentiation of the cells” value is “morphological change or differentiation of the cells appeared” and the “proliferation of the cells” value is recorded as “enhanced”.
